Reference: US20100298141A1, “SUBSTITUTED PYRIDINE N-OXIDE HERBICIDES” (E. I. DU PONT DE NEMOURS AND COMPANY, priority 2007, published 2010)

Legend:
barnyardgrass [1] = experiment: Test A pre-/postemergence greenhouse test; format: in vivo, Echinochloa crus-galli; conditions: for Barnyardgrass plant response rating: 0 to 100 scale; for Plant response rating, Barnyardgrass: 0 to 100 scale where 0 is no effect and 100 is complete control
Outline: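 Untreated controls served as the reference for visual injury ratings taken about ten days after spraying. The non-phytotoxic solvent/surfactant formulation was applied preemergence to seeded loam and sand and postemergence to plants two to ten cm high.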

cocklebur = experiment: Test C pre-/postemergence test; format: in vivo, Xanthium strumarium
Outline: (§1)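 Test chemicals were formulated with surfactant in a non-phytotoxic solvent and sprayed both on freshly planted seeds (preemergence) and on 1- to 4-leaf plants of 2–18 cm (postemergence). Flooded-paddy pots received compound directly into 3 cm of standing water, maintained for the test.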

kochia = experiment: Test C pre-/postemergence test; format: in vivo, Kochia scoparia
Outline: as §1

velvetleaf = experiment: Test C pre-/postemergence test; format: in vivo, Abutilon theophrasti
Outline: as §1

green foxtail = experiment: Test F preemergence test; format: in vivo, Setaria viridis; conditions: scale 0 to 100
Outline: (§2)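 Preemergence application to planted seeds, or postemergence to sugarcane plants; compound in non-phytotoxic solvent mix plus surfactant. Greenhouse, 14-21 days. Visual rating vs. controls.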

mustard = experiment: Test F preemergence test; format: in vivo, Brassica nigra; conditions: scale 0 to 100
Outline: as §2

dallisgrass = experiment: Test F preemergence test; format: in vivo, Paspalum dilatatum; conditions: scale 0 to 100
Outline: as §2

barnyardgrass [2] = experiment: Test F preemergence test; format: in vivo, Echinochloa crus-galli; conditions: scale 0 to 100
Outline: as §2

broadleaf signalgrass = experiment: Test F preemergence test; format: in vivo, Brachiaria platyphylla; conditions: scale 0 to 100
Outline: as §2

Virginia dayflower = experiment: Test F preemergence test; format: in vivo, Commelina virginica; conditions: scale 0 to 100
Outline: as §2

annual bluegrass = experiment: Test F preemergence test; format: in vivo, Poa annua; conditions: scale 0 to 100
Outline: as §2

itchgrass = experiment: Test F preemergence test; format: in vivo, Rottboellia cochinchinensis; conditions: scale 0 to 100
Outline: as §2

field bindweed = experiment: Test F preemergence test; format: in vivo, Convolvulus arvensis; conditions: scale 0 to 100
Outline: as §2

common mallow = experiment: Test F preemergence test; format: in vivo, Malva sylvestris; conditions: scale 0 to 100
Outline: as §2

[3] = Postemergence, 125 g ai/ha, 0 is no effect, 100 is complete control
[4] = Postemergence, 500 g ai/ha, 0 is no effect, 100 is complete control
[5] = Preemergence, 125 g ai/ha, 0 no effect, 100 complete control
[6] = 31 g ai/ha, Preemergence, scale 0 to 100
[7] = 62 g ai/ha, preemergence, scale 0 (no effect) to 100 (complete control)
[8] = Postemergence, 62 g ai/ha, scale 0 to 100, 0 no effect, 100 complete control
[9] = Postemergence, 125 g ai/ha, scale 0 to 100, 0 no effect, 100 complete control
[10] = Postemergence, 250 g ai/ha, scale 0 to 100, 0 no effect, 100 complete control
[11] = preemergence, 125 g ai/ha, scale 0 (no effect) to 100 (complete control)
[12] = 62 g ai/ha, Preemergence, scale 0 to 100
[13] = Preemergence, 31 g ai/ha, scale 0 to 100 (0 no effect, 100 complete control)

`Cn1nc(C(F)(F)F)c(C[S+]([O-])c2cccc[n+]2[O-])c1OC(F)F` (stereo not shown) [Compound 3] was tested, and the “Barnyardgrass plant response rating” value (barnyardgrass [1]; [3]) was 80, the “Barnyardgrass plant response rating” value (barnyardgrass [1]; [4]) was 90 and the “Barnyardgrass plant response rating” value (barnyardgrass [1]; [5]) was 80. For the same molecule, the “Plant response rating, Barnyardgrass” value (barnyardgrass [1]; Preemergence, 500 g ai/ha) was 100, the “Cocklebur plant response rating” value (cocklebur; [6]) was 0 and the “Cocklebur plant response rating” value (cocklebur; [7]) was 0. The “Plant response rating (0 to 100), Cocklebur” value (cocklebur; Postemergence, 31 g ai/ha) was 0, the “Plant response rating, Cocklebur” value (cocklebur; [8]) was 0 and the “Plant response rating, Cocklebur” value (cocklebur; [9]) was 0. The “Plant response rating, Cocklebur” value (cocklebur; [10]) was 10, the “Plant response rating (0 to 100), Cocklebur” value (cocklebur; Preemergence, 250 g ai/ha) was 5 and the “Cocklebur plant response rating” value (cocklebur; [11]) was 0. For the same molecule, the “Kochia plant response rating” value (kochia; [6]) was 80, the “Kochia plant response rating” value (kochia; [7]) was 100 and the “Plant response rating (0 to 100), Kochia” value (kochia; Postemergence, 31 g ai/ha) was 5. The “Plant response rating, Kochia” value (kochia; [8]) was 5, the “Plant response rating, Kochia” value (kochia; [9]) was 10 and the “Plant response rating, Kochia” value (kochia; [10]) was 10. For the same molecule, the “Plant response rating (0 to 100), Kochia” value (kochia; Preemergence, 250 g ai/ha) was 100, the “Kochia plant response rating” value (kochia; [11]) was 100 and the “Plant response rating (0 to 100), Velvetleaf” value (velvetleaf; Postemergence, 31 g ai/ha) was 10. For the same molecule, the “Plant response rating (0 to 100), Velvetleaf” value (velvetleaf; Postemergence, 62 g ai/ha) was 10, the “Plant response rating, Velvetleaf” value (velvetleaf; [9]) was 60 and the “Plant response rating, Velvetleaf” value (velvetleaf; [10]) was 65. The “Plant response rating, Foxtail, Green” value (green foxtail; 8 g ai/ha, preemergence) was 0, the “Foxtail, Green plant response rating” value (green foxtail; 62 g ai/ha, Preemergence) was 95 and the “Plant response rating, Foxtail, Green” value (green foxtail; Preemergence, 16 g ai/ha) was 40. For the same molecule, the “Plant response rating, Foxtail, Green” value (green foxtail; Preemergence, 31 g ai/ha) was 75, the “Plant response rating, Black Mustard” value (mustard; 8 g ai/ha, preemergence) was 35 and the “Black Mustard plant response rating” value (mustard; 62 g ai/ha, Preemergence) was 100. For the same molecule, the “Plant response rating, Black Mustard” value (mustard; Preemergence, 16 g ai/ha) was 60, the “Plant response rating, Black Mustard” value (mustard; Preemergence, 31 g ai/ha) was 95 and the “Plant response rating, Dallisgrass” value (dallisgrass; 8 g ai/ha, preemergence) was 0. For the same molecule, the “Dallisgrass plant response rating” value (dallisgrass; 62 g ai/ha, Preemergence) was 98, the “Plant response rating, Dallisgrass” value (dallisgrass; Preemergence, 16 g ai/ha) was 0 and the “Plant response rating, Dallisgrass” value (dallisgrass; Preemergence, 31 g ai/ha) was 75. For the same molecule, the “Plant response rating, Barnyardgrass” value (barnyardgrass [2]; 8 g ai/ha, preemergence) was 40, the “Barnyardgrass plant response rating” value (barnyardgrass [2]; 62 g ai/ha, Preemergence) was 100 and the “Plant response rating, Barnyardgrass” value (barnyardgrass [2]; Preemergence, 16 g ai/ha) was 80. The “Plant response rating, Barnyardgrass” value (barnyardgrass [2]; Preemergence, 31 g ai/ha) was 90, the “Plant response rating, Signalgrass” value (broadleaf signalgrass; 8 g ai/ha, preemergence) was 0 and the “Plant response rating, Signalgrass” value (broadleaf signalgrass; 16 g ai/ha, preemergence) was 0. For the same molecule, the “Signalgrass plant response rating” value (broadleaf signalgrass; 62 g ai/ha, Preemergence) was 75, the “Plant response rating, Signalgrass” value (broadleaf signalgrass; Preemergence, 31 g ai/ha) was 75 and the “Plant response rating, Dayflower” value (Virginia dayflower; 8 g ai/ha, preemergence) was 0. The “Dayflower plant response rating” value (Virginia dayflower; 62 g ai/ha, Preemergence) was 90, the “Plant response rating, Dayflower” value (Virginia dayflower; Preemergence, 16 g ai/ha) was 0 and the “Plant response rating, Dayflower” value (Virginia dayflower; Preemergence, 31 g ai/ha) was 90. The “Plant response rating, Bluegrass” value (annual bluegrass; 8 g ai/ha, preemergence) was 0, the “Bluegrass plant response rating” value (annual bluegrass; 62 g ai/ha, Preemergence) was 50 and the “Plant response rating, Bluegrass” value (annual bluegrass; Preemergence, 16 g ai/ha) was 0. The “Plant response rating, Bluegrass” value (annual bluegrass; Preemergence, 31 g ai/ha) was 50, the “Plant response rating, Itchgrass” value (itchgrass; 8 g ai/ha, preemergence) was 0 and the “Itchgrass plant response rating” value (itchgrass; 62 g ai/ha, Preemergence) was 90. The “Plant response rating, Itchgrass” value (itchgrass; Preemergence, 16 g ai/ha) was 35, the “Plant response rating, Itchgrass” value (itchgrass; Preemergence, 31 g ai/ha) was 70 and the “Plant response rating, Field Bindweed” value (field bindweed; 8 g ai/ha, preemergence) was 0. For the same molecule, the “Field Bindweed plant response rating” value (field bindweed; 62 g ai/ha, Preemergence) was 25, the “Plant response rating, Field Bindweed” value (field bindweed; Preemergence, 16 g ai/ha) was 0 and the “Plant response rating, Field Bindweed” value (field bindweed; Preemergence, 31 g ai/ha) was 25. For the same molecule, the “Plant response rating, Mallow” value (common mallow; 8 g ai/ha, preemergence) was 0, the “Mallow plant response rating” value (common mallow; 62 g ai/ha, Preemergence) was 75 and the “Plant response rating, Mallow” value (common mallow; Preemergence, 16 g ai/ha) was 0. The “Plant response rating, Mallow” value (common mallow; Preemergence, 31 g ai/ha) was 0.
With `Cc1cc[n+]([O-])c(S(=O)(=O)Cc2c(C(F)(F)F)nn(C)c2Cl)c1` [Compound 19] the “Barnyardgrass plant response rating” value (barnyardgrass [1]; [3]) was 40, the “Barnyardgrass plant response rating” value (barnyardgrass [1]; [4]) was 80 and the “Barnyardgrass plant response rating” value (barnyardgrass [1]; [5]) was 80. The “Plant response rating, Barnyardgrass” value (barnyardgrass [1]; Preemergence, 500 g ai/ha) was 100, the “Cocklebur plant response rating” value (cocklebur; [12]) was 0 and the “Plant response rating, Cocklebur” value (cocklebur; [13]) was 0. For the same molecule, the “Plant response rating (0 to 100), Cocklebur” value (cocklebur; Preemergence, 250 g ai/ha) was 30, the “Cocklebur plant response rating” value (cocklebur; [11]) was 0 and the “Kochia plant response rating” value (kochia; [12]) was 100. The “Plant response rating, Kochia” value (kochia; [13]) was 0, the “Velvetleaf plant response rating” value (velvetleaf; [12]) was 0 and the “Plant response rating, Velvetleaf” value (velvetleaf; [13]) was 0. The “Foxtail, Green plant response rating” value (green foxtail; 62 g ai/ha, Preemergence) was 75, the “Foxtail, Green plant response rating” value (green foxtail; 125 g ai/ha, preemergence) was 90 and the “Plant response rating, Foxtail, Green” value (green foxtail; Preemergence, 16 g ai/ha) was 0. For the same molecule, the “Plant response rating, Foxtail, Green” value (green foxtail; Preemergence, 31 g ai/ha) was 50, the “Black Mustard plant response rating” value (mustard; 62 g ai/ha, Preemergence) was 100 and the “Black Mustard plant response rating” value (mustard; 125 g ai/ha, preemergence) was 100. For the same molecule, the “Plant response rating, Black Mustard” value (mustard; Preemergence, 16 g ai/ha) was 0, the “Plant response rating, Black Mustard” value (mustard; Preemergence, 31 g ai/ha) was 20 and the “Dallisgrass plant response rating” value (dallisgrass; 62 g ai/ha, Preemergence) was 65. For the same molecule, the “Dallisgrass plant response rating” value (dallisgrass; 125 g ai/ha, preemergence) was 90, the “Plant response rating, Dallisgrass” value (dallisgrass; Preemergence, 16 g ai/ha) was 0 and the “Plant response rating, Dallisgrass” value (dallisgrass; Preemergence, 31 g ai/ha) was 20. The “Barnyardgrass plant response rating” value (barnyardgrass [2]; 62 g ai/ha, Preemergence) was 90, the “Barnyardgrass plant response rating” value (barnyardgrass [2]; 125 g ai/ha, preemergence) was 98 and the “Plant response rating, Barnyardgrass” value (barnyardgrass [2]; Preemergence, 16 g ai/ha) was 70. For the same molecule, the “Plant response rating, Barnyardgrass” value (barnyardgrass [2]; Preemergence, 31 g ai/ha) was 80, the “Signalgrass plant response rating” value (broadleaf signalgrass; 62 g ai/ha, Preemergence) was 65 and the “Signalgrass plant response rating” value (broadleaf signalgrass; 125 g ai/ha, preemergence) was 95. The “Plant response rating, Signalgrass” value (broadleaf signalgrass; Preemergence, 31 g ai/ha) was 60, the “Dayflower plant response rating” value (Virginia dayflower; 62 g ai/ha, Preemergence) was 30 and the “Dayflower plant response rating” value (Virginia dayflower; 125 g ai/ha, preemergence) was 90. The “Plant response rating, Dayflower” value (Virginia dayflower; Preemergence, 16 g ai/ha) was 0, the “Plant response rating, Dayflower” value (Virginia dayflower; Preemergence, 31 g ai/ha) was 0 and the “Bluegrass plant response rating” value (annual bluegrass; 62 g ai/ha, Preemergence) was 0. For the same molecule, the “Bluegrass plant response rating” value (annual bluegrass; 125 g ai/ha, preemergence) was 95, the “Plant response rating, Bluegrass” value (annual bluegrass; Preemergence, 16 g ai/ha) was 0 and the “Plant response rating, Bluegrass” value (annual bluegrass; Preemergence, 31 g ai/ha) was 0. The “Itchgrass plant response rating” value (itchgrass; 62 g ai/ha, Preemergence) was 25, the “Itchgrass plant response rating” value (itchgrass; 125 g ai/ha, preemergence) was 50 and the “Plant response rating, Itchgrass” value (itchgrass; Preemergence, 16 g ai/ha) was 0. The “Plant response rating, Itchgrass” value (itchgrass; Preemergence, 31 g ai/ha) was 0, the “Field Bindweed plant response rating” value (field bindweed; 62 g ai/ha, Preemergence) was 0 and the “Field Bindweed plant response rating” value (field bindweed; 125 g ai/ha, preemergence) was 15. The “Plant response rating, Field Bindweed” value (field bindweed; Preemergence, 16 g ai/ha) was 0, the “Plant response rating, Field Bindweed” value (field bindweed; Preemergence, 31 g ai/ha) was 0 and the “Mallow plant response rating” value (common mallow; 62 g ai/ha, Preemergence) was 0. The “Mallow plant response rating” value (common mallow; 125 g ai/ha, preemergence) was 40, the “Plant response rating, Mallow” value (common mallow; Preemergence, 16 g ai/ha) was 0 and the “Plant response rating, Mallow” value (common mallow; Preemergence, 31 g ai/ha) was 0.
